In patent publication US20190269666A1, “COMBINATION THERAPY WITH MERESTINIB AND ANTI-PD-L1 OR ANTI-PD-1 INHIBITORS FOR USE IN THE TREATMENT OF CANCER” (Eli Lilly and Company, priority 2016, published 2019):

Experiments:
CT26 cells = assay: CT26 cell proliferation; assay type: cell-based; conditions: Mus musculus, in vitro
Description: CT26 CRC tumor cells harbor KRAS activating mutation G12D. […] CT26 cells also express high level of phospho-AXL (p-AXL) by western blot analysis and merestinib is shown to decrease p-AXL in vitro by more than 60% at a concentration of 500 nM in the mouse phospho-RTK array, but show very little effect on CT26 cell proliferation (IC50>20 μM).

[1] = tested on: 80-murine immune gene panel (mRNA expression) in CT26 tumors; assay: Immuno-landscape analysis, QuantiGene mu-80 immune gene panel on CT26 tumors; assay type: in vivo, mouse; conditions: for Log2 (difference to vehicle control): CT26 tumors, Day 20
Description: Frozen tumor fragments of the samples collected on study Day 20 from 5 animals from each treatment arm (study S010516) are analyzed for gene expression of 80 markers using the Quantigene murine-80 panel (mu-80 immune panel #21681). Total RNA was isolated from lysed samples using the MAGMAX™ 96 Total RNA isolation kit (Life Technologies). Snap-frozen tumor fragments are lysed by adding 500 μL, of prepared lysis/binding buffer (MAGMAX™ 96 Total RNA isolation kit) with a single stainless steel bead (5 mm) and then homogenized on a TissueLyser (Qiagen) for 2 minutes at 25 Hz. 200 μL of lysate, along with 120 μL of 100% isopropanol and 40 μL of prepared magnetic beads mix are then transferred to a 96 deep well processing plate. A series of washes and a DNase incubation step are processed on the MAGMAX™ Express-96 Deep Well Magnetic Particle Processor (Life Technologies). RNA is eluted from the magnetic beads with […] of elution buffer after a final wash step. RNA concentration is determined spectrophotometrically to determine optical density at 260 and 280 nm and is then diluted to the final concentration of 25 ng/μl. Tissue expression of immune related genes is then measured using a QuantiGene® 2.0 Plex assay (Affymetrix) with a custom probe set (mu-80 immune panel #21681, Table 6). Four house-keeping-genes (HKG: Gusb, Hprt1, Ppib, Rps18) are used to normalize the gene expression data. Data are normalized and curated using the Genepattern script v28.8. Statistics and bioinformatics are used to analyze the data.
Five hundred ng of total RNA from samples being analyzed is added in duplicate to individual wells of a 96-well hybridization plate containing QuantiGene® magnetic capture beads, QuantiGene® probeset #21681, and QuantiGene® blocking reagent for a final volume of 100 μL. The hybridization plate is then sealed and incubated at 54° C. while agitated at 600 rpm for 16 hours. Samples are then transferred to a 96-well assay plate and beads are then sequentially hybridized first with 100 μl of QuantiGene® Pre-Amplifier Probe, then with QuantiGene® Amplifier Probe, and finally with QuantiGene® Label Probe (1 hour at 50° C. for each step, with 2-3 washes between each step using a magnetic capture plate). Streptavidin-conjugated R-Phycoerythrin (SAPE, Affymetrix) is added after the last hybridization step and incubated for 30 minutes at room temperature with agitation at 600 rpm. Samples are then analyzed on the FLEXMAP 3D® Luminex instrument (Luminex Corp). Beads (mRNA target) are identified with a red laser while the level of RNA is determined by measuring the mean fluorescence intensity (MFI) of Phycoerythrin with a green laser. Raw MFI data are then converted into relative gene expression for each gene (Normalized Adjusted Net MFI, background subtracted and normalized to 4 housekeeping genes), using a quality control analysis script with GenePattern (Broad Institute). […] Next, the lower limit of detection (LLOD) is determined (average background MFI+3 standard deviation (SD)). […] Relative gene expression is then calculated by normalizing for each gene's adjusted net MFI to the geometric mean of the MFI of selected housekeeping genes (HKG) including Hprt1, Gusb, Rps18 and Ppib, as shown in Table 6: (Sample Adjusted Net MFI/geometric mean Adjusted Net HKG MFI) multiplied by a scaling factor of 100. […]

immune cells = assay: Flow cytometry analysis of immune cells in spleens and tumors; assay type: in vivo, mouse; conditions: compared to concurrent combination or vehicle control
Description: Spleens and tumors are collected from a subset of animals on the indicated study day(s) and processed for FACS analysis by homogenizing tissues through a tissue strainer to prepare a single cell suspension in culture medium. Single cell suspensions are then stained with fluorescently-labeled antibodies to identify immune markers including: CD3, CD4, CD8, CD11b, CD19, CD45, FoxP3, PD-L1, F4/80 and a fixable viability dye. Cells are analyzed using a BD LSR II flow cytometer. Data are collected and analyzed using Flowjo (Tree Star, Inc.) to measure the percentage of total live lymphocytes (Live, CD45+) in each tissue. Immune cell subsets are then measured as a percentage of CD45 cells, or as a percentage of the immediate parent population.

Question: `Cc1ccc(C(=O)Nc2ccc(Oc3cc4cnn(C)c4cc3-c3cn[nH]c3)c(F)c2)c(=O)n1-c1ccc(F)cc1` [merestinib, N-(3-fluoro-4-(1-methyl-6-(1H-pyrazol-4-yl)-1H-indazol-5-yloxy)phenyl)-1-(4-fluorophenyl)-6-methyl-2-oxo-1,2-dihydropyridine-3-carboxamide] was tested. Which IC50 (CT26 cells) did it give?
Answer: > 20 µM

Question: And the “Log2 (difference to vehicle control)” value ([1]; gene Cdh1)?
Answer: 1.01

Question: And the “Log2 (difference to vehicle control)” value ([1]; gene Cdh1, listed as Merestinib alone)?
Answer: 1.0

Question: What about the “Log2 (difference to vehicle control)” value ([1]; gene Tnfrsf) of the same compound?
Answer: 0.8

Question: And the “number of immune genes with no significant change vs vehicle control” value ([1]; of an 80-immune gene panel)?
Answer: 79

Question: What about the “number of immune genes significantly different from vehicle control” value ([1]; of the 80 immune genes measured, tumors Day 20) of the same compound?
Answer: 1

Question: What about the “change in immune cells by flow cytometry” value (immune cells) of the same compound?
Answer: no significant change
